How the values were obtained:
[1] = tested on: HL-60; experiment: in vitro inhibition of leukemia (HL-60(TB)) cancer cell line; format: functional; conditions: Homo sapiens
[2] = tested on: MDA-N; experiment: in vitro inhibition of breast (MDA-N) cancer cell line; format: functional; conditions: Homo sapiens
[3] = tested on: LOX IMVI; experiment: in vitro inhibition of melanoma(LOX IMVI) cancer cell line; format: functional; conditions: Homo sapiens
[4] = tested on: MDA-MB-435; experiment: in vitro inhibition of breast (MDA-MB-435) cancer cell line; format: functional; conditions: Homo sapiens
[5] = tested on: Malme-3M; experiment: in vitro inhibition of melanoma (MALME-3M) cancer cell line; format: functional; conditions: Homo sapiens
[6] = tested on: M14; experiment: in vitro inhibition of melanoma (M14) cancer cell line; format: functional; conditions: Homo sapiens
[7] = tested on: NCI-H23; experiment: in vitro inhibition of non-small-cell lung (NCI-H23) cancer cell line; format: functional; conditions: Homo sapiens
[8] = tested on: NCI-H522; experiment: in vitro inhibition of non-small-cell lung (NCI-H522) cancer cell line; format: functional; conditions: Homo sapiens
[9] = tested on: OVCAR-8; experiment: in vitro inhibition of ovarian (OVCAR-8) cancer cell line; format: functional; conditions: Homo sapiens
[10] = tested on: SK-MEL-2; experiment: in vitro inhibition of melanoma (SK-MEL-2) cancer cell line; format: functional; conditions: Homo sapiens
[11] = tested on: SK-MEL-28; experiment: in vitro inhibition of melanoma (SK-MEL-28) cancer cell line; format: functional; conditions: Homo sapiens
[12] = tested on: UACC-62; experiment: in vitro inhibition of melanoma (UACC-62) cancer cell line; format: functional; conditions: Homo sapiens
[13] = tested on: UACC-257; experiment: in vitro inhibition of melanoma (UACC-257) cancer cell line; format: functional; conditions: Homo sapiens
[14] = tested on: Hs-578T; experiment: in vitro inhibition of breast (HS 578T) cancer cell line; format: functional; conditions: Homo sapiens
[15] = tested on: SK-MEL-5; experiment: in vitro inhibition of melanoma (SK-MEL-5) cancer cell line; format: functional; conditions: Homo sapiens
[16] = tested on: OVCAR-3; experiment: in vitro inhibition of ovarian (OVCAR-3) cancer cell line; format: functional; conditions: Homo sapiens
[17] = tested on: BT-549; experiment: in vitro inhibition of breast (BT-549) cancer cell line; conditions: Homo sapiens
[18] = tested on: BT-549; experiment: in vitro inhibition of breast (BT-549) cancer cell line; format: functional; conditions: Homo sapiens
[19] = tested on: CAKI-1; experiment: cytotoxic activity against […] cancer cell line; format: functional, cell-based; conditions: Homo sapiens
[20] = tested on: HCT-8; experiment: cytotoxic activity against […] cancer cell line; format: functional, cell-based; conditions: Homo sapiens
[21] = tested on: KB; experiment: cytotoxic activity against […] cancer cell line; format: functional, cell-based; conditions: Homo sapiens
[22] = tested on: L1210 (1565); experiment: cytotoxic activity against leukemia (L-1210) cancer cell line; format: functional, cell-based; conditions: Mus musculus
[23] = tested on: MCF7; experiment: cytotoxic activity against […] cancer cell line; format: functional, cell-based; conditions: Homo sapiens
[24] = tested on: P388; experiment: cytotoxic activity against leukemia (P-388) cancer cell line; format: functional, cell-based; conditions: Mus musculus
[25] = tested on: A549; experiment: cytotoxic activity against […] cancer cell line; format: functional, cell-based; conditions: Homo sapiens
[26] = tested on: SK-MEL-2; experiment: cytotoxic activity against […] cancer cell line; format: functional, cell-based; conditions: Homo sapiens

Compound | GI50 [1] [nM] | GI50 [2] [nM] | GI50 [3] [nM] | GI50 [4] [nM] | GI50 [5] [nM] | GI50 [6] [nM] | GI50 [7] [nM] | GI50 [8] [nM] | GI50 [9] [nM] | GI50 [10] [nM] | GI50 [11] [nM] | GI50 [12] [nM] | GI50 [13] [nM] | GI50 [14] [nM] | GI50 [15] [nM] | GI50 [16] [nM] | GI50 [18] [nM] | also measured
CC(=O)OC(C)c1cc2c(s1)C(=O)c1ccsc1C2=O (configuration not stated) | < 10 | < 10 | < 10 | < 10 | < 10 | 13 | 11 | 150 | 36 | 26 | 19 | 17 | 25 | 160 | 14 | < 10 |  | GI50 [17]: 46 nM
CC(=O)OC(C)c1cc2c(s1)C(=O)c1c(C(C)OC(C)=O)csc1C2=O (configuration not stated) | 68 | 210 | 1600 | 190 | 190 | 510 | 870 | < 10 | 460 | 1600 | 1700 | 1100 | 630 | 2100 | 630 | 280 |  | GI50 [17]: 2100 nM
CC(=O)c1cc2c(s1)C(=O)c1scc(C(C)=O)c1C2=O | < 10 | 200 | 22 | 230 | 220 | 440 | 290 | 380 | 230 | 160 | 200 | 230 | 170 | 280 | 320 | 30 | 910 | 
CC(=O)c1cc2c(s1)C(=O)c1sccc1C2=O | < 10 | < 10 | < 10 | < 10 | 16 | 17 | 18 | 17 | 31 | 33 | < 10 | 17 | 14 | 36 | < 10 | < 10 | 18 | 
CC(=O)OC(C)c1cc2c(s1)C(=O)c1scc(C(C)OC(C)=O)c1C2=O (configuration not stated) | 650 | 59 | 120 | 21 | 130 | 120 | 160 | 200 | 230 | 150 | 210 | 200 | 170 | 250 | 34 | 270 | 200 | 
CC(O)c1cc2c(s1)C(=O)c1scc(C(C)O)c1C2=O (configuration not stated) | 440 | 150 | 120 | 160 | 150 | 160 | 190 | 400 | 260 | 200 | 230 | 250 | 160 | 320 | 140 | 360 | 200 | 
CC(O)c1cc2c(s1)C(=O)c1c(C(C)O)csc1C2=O (configuration not stated) | 11 | 21 | 55 | 18 | 28 | 58 | 34 | 300 | 220 | 110 | 190 | 32 | 62 | 320 | 13 | 12 |  | GI50 [17]: 160 nM
O=C1c2ccsc2C(=O)c2ccsc21 |  |  |  |  |  |  |  |  |  |  |  |  |  |  |  |  |  | IC50 [19]: 1500 nM; IC50 [20]: 320 nM; IC50 [21]: 310 nM; IC50 [22]: 1700 nM; IC50 [23]: 480 nM; IC50 [24]: < 530 nM; IC50 [25]: 260 nM
CC(=O)OC(C)c1cc2c(s1)C(=O)c1sccc1C2=O (configuration not stated) | 1700 | 19 | 210 | 180 | 120 | 160 | 220 | 870 | 1400 | 420 | 650 | 1400 | 210 | 510 | 110 | 490 | 280 | 
O=C1c2ccsc2C(=O)c2sccc21 |  |  |  |  |  |  |  |  |  |  |  |  |  |  |  |  |  | IC50 [19]: 590 nM; IC50 [20]: 170 nM; IC50 [21]: 270 nM; IC50 [23]: < 85 nM; IC50 [26]: 320 nM; IC50 [25]: 170 nM
CC(=O)c1cc2c(s1)C(=O)c1c(C(C)=O)csc1C2=O | 53 | 170 | 1100 | 180 | 130 | 1500 | 1300 | 530 | 1500 | 1700 | 1800 | 2000 | 560 | 2400 | 1200 | 230 |  | GI50 [17]: 1700 nM
CC(O)c1cc2c(s1)C(=O)c1ccsc1C2=O (configuration not stated) | 15 | 13 | 10 | < 10 | 16 | 15 | 15 | 120 | 200 | 91 | 17 | 16 | 15 | 110 | < 10 | 24 | 78 | 
CC(O)c1cc2c(s1)C(=O)c1sccc1C2=O (configuration not stated) | 69 | 19 | 24 | 16 | 19 | 15 | 16 | 120 | 160 | 31 | 39 | 22 | 18 | 58 | 14 | 120 | 35 | 
CC(=O)c1cc2c(s1)C(=O)c1ccsc1C2=O | 45 | 37 | 25 | 37 | 117 | 130 | 150 | 160 | 300 | 200 | 160 | 210 | 130 | 160 | 23 | 160 | 180 | 

Source: ChEMBL document CHEMBL1131509, “Synthesis and cytotoxicity of 2-acetyl-4,8-dihydrobenzodithiophene-4, 8-dione derivatives” (J Med Chem, 1998)
